Like-named read-outs stand apart in the source and are kept apart here.
Legend:
D4 receptor = target: T1, D4 receptor (Homo sapiens, UniProt P21917); assay: [14C] formate-labelled phospholipid methylation in CHO/D4 cells; type: cell-based; details: absence of agonist
T1 construct: expressed in transfected cells; host or cells: CHO cells
T1 sequence (P21917 1-419): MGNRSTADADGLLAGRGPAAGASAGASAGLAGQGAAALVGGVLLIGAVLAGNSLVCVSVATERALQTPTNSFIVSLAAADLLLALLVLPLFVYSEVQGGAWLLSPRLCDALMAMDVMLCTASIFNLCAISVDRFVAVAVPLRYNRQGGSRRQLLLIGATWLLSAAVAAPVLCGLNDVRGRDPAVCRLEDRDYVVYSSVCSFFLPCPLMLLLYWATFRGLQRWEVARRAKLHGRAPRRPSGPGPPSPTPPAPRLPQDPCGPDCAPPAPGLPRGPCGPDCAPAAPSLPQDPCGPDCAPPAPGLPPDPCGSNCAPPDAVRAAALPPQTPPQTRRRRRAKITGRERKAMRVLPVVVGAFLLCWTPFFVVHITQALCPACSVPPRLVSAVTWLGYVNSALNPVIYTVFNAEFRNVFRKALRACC
Procedure: CHO cells transfected with the D4 receptor gene were fed with minimum essential medium (alpha modifications, with or without nucleosides) (pH 7.2) containing 2 mM L-glutamine, W/G418 antibiotic (400 mg/L), donor horse serum (2.5%), fetal bovine serum (2.5%), penicillin/streptomycin/fungizone (1%), CuSO4 (10^−6M). Cells (200,000 cells/well) were plated in 6-well- plates and placed in 5% CO2 incubator at 37° C.
Two-day-old confluent, cultured D4-transfected CHO cells were used for assay. The pH of Hank's balanced buffer (HBSS) was adjusted to pH 7.4 using sodium bicarbonate buffer. [^14C]-formic acid (1 μCi/ml) and pharmacological agents were added to HBSS. Feeding medium was removed from the well and then 600 μl of the HBSS solution with the radiolabelled formic acid (warmed to 37° C.) was added to each well of 6-well-plates. Plates were incubated at 37° C. for 30 minutes in the culture incubator. The reaction was stopped by washing once with ice-cold PBS (pH 7.4) and, after aspirating off the HBSS, 500 μl of 10% trichloroacetic acid (TCA) was added. Cells were harvested by scraping with a cell scraper and transferred into a plastic microcentrifuge tube. […] CPM values were normalized to the protein content of each sample and expressed as the mean +/− S.E.M. for the group. Differences between groups were analyzed by a t-test with p<0.05 as the criterion for significance.

dopamine D4 receptors = target: T2, dopamine D4 receptors (Homo sapiens, UniProt P21917); details: Schlacter et al., Soc. Neurosci. Abstr. 1995; read-out: reported KD; cited from earlier work
T2 sequence (P21917 1-419): T1 sequence (P21917 1-419)

lymphocytes = details: for stimulation of phospholipid methylation: dopamine (10 μM) and GTP (1 μM); for inhibition of phospholipid methylation below basal: haloperidol 1 μM with dopamine/GTP
Source text: In an early hypothesis (“the transmethylation hypothesis”), a defect resulting in the formation of hallucinogens was proposed. […] To determine whether D4 receptor-dependent phospholipid methylation was altered in individuals with schizophrenia, males ages 27-70 with well documented schizophrenia by DSM-IV criteria, were studied and compared with normal controls.
To determine whether D4 receptor-dependent phospholipid methylation was altered in schizophrenia, the labelling of phospholipids by [^3H]-methyl-methionine in lymphocytes obtained from people with schizophrenia (as defined by DSM IV diagnostic criteria Diagnostic and Statistical Manual of Mental Disorders (4th Edition), American Psychiatric Association, Washington, D.C., […], pp. 759-764) under medical treatment) was measured as compared to lymphocytes from healthy controls. Lymphocytes were isolated as previously described (De La Rosa et al., J. Biol. Chem. 267:10699, 1992) and aliquots of 4×10^6 cells were resuspended in Hank's balanced salt solution containing 8 μCi/ml [^3H-methyl]methionine for 60 min. […] Incorporation of [^3H-methyl] label into phospholipids was determined as described in Example I.

SK-N-MC cells = SK-N-MC cells grown in the presence of nucleosides
[1] = lymphocytes of schizophrenia patients

CC(C)Oc1cccnc1N(C)C1CCN(Cc2ccccc2)CC1 [U-101,958]
effect on [14C] formate-labelled phospholipid methylation, FIG. 3b (D4 receptor; CHO/D4 cells grown in nucleoside-free medium): dose-dependent inhibition | IC50 (D4 receptor; CHO/D4 cells, read-out: IC50 of inhibition of phospholipid methylation): 0.2 nM | Kd (dopamine D4 receptors): 1 nM

NCCc1ccc(O)c(O)c1 [dopamine]
stimulation of phospholipid methylation (lymphocytes; lymphocytes of normal controls): 30% | stimulation of phospholipid methylation (lymphocytes; [1]): 165% | effect on [14C] formate-labelled phospholipid methylation, FIG. 3c (SK-N-MC cells): dose-dependent dopamine stimulation

O=C(CCCN1CCC(O)(c2ccc(Cl)cc2)CC1)c1ccc(F)cc1 [haloperidol]
effect on methyl incorporation into phospholipids, FIG. 4B (lymphocytes; both control and schizophrenia lymphocytes, dopamine 10 μM and GTP 1 mM, with or without haloperidol 1 μM): significant decrease | inhibition of phospholipid methylation below basal (lymphocytes; lymphocytes of normal controls): 25% | inhibition of phospholipid methylation below basal (lymphocytes; [1]): 39%

Reference: US6773892B1, “Methods of identifying and determining the effectiveness of therapeutic processes or agents for the treatment of schizophrenia and related disorders” (Northeastern University, priority 1997, dated 2004)
